pIC50: −log10 of the molar value. Where a name gives a salt, the structure may show the parent alone. Read-outs that look alike come from different tables or passages of the source.
How the values were obtained:
Format in all cases: cell-based
[1] = target: T1, NMDA receptor subunits 1A/2A (Rattus norvegicus, UniProt P35439+Q00959); assay: Electrophysiological assay at NMDA receptor subunits expressed in Xenopus oocytes, 1A/2A; conditions: glutamate 100 μm and glycine 1-100 μm
T1 construct: expressed in transfected cells; host or cells: Xenopus laevis oocytes (cRNA injection; clones from Dr. P. H. Seeburg)
Description: (§1) Many of the properties of native NMDA receptors are seen in recombinant homomeric NR1 receptors. These properties are altered by the NR2 subunits. Recombinant NMDA receptors expressed in Xenopus oocytes have been studied by voltage-clamp recording, as has developmental and regional expression of the mRNAs encoding NMDA receptor subunits. Electrophysiological assays were utilized to characterize the actions of compounds at NMDA receptors expressed in Xenopus oocytes. The compounds were assayed at four subunit combinations of cloned rat NMDA receptors, corresponding to three putative NMDA receptor subtypes [Moriyoshi, et al. Nature 1991, 354, 31-37; Monyer et al, Science 1992, 256, 1217-1221; Kutsuwada et al, Nature 1992, 358, 36-41; Sugihara et al, Biochem. Biophys Res. Commun. 1992, 185, 826-832].
(§2) Electrophysiological Assays at NMDA Receptor Subunits
(§3) Preparation of RNA. cDNA clones encoding the NR1A, NR2A, NR2B, NR2C and NR2D rat NMDA receptor subtypes were provided by Dr. P. H. Seeburg (see, Moriyoshi et al., Nature (Lond.) 354:31-37 (1991); Kutsuwada et al., Nature (Lond.) 358:36-41 (1992) Monyer et al., Science (Washington, D.C.) 256:1217-1221 (1992); Ikeda et al., FEBS Lett. 313:34-38 (1992); Ishii et al., J. Biol. Chem. 268:2836-2843 (1993) for details of these clones or their mouse homologs). The clones were transformed into appropriate host bacteria and plasmid preparations were made with conventional DNA purification techniques. A sample of each clone was linearized by restriction enzyme digestion and cRNA was synthesized with T3 RNA polymerase. The cRNA was diluted to 400 ng/μl and stored in 1 μl aliquots at -80° C. until injection.
(§4) The Xenopus oocyte expression system. Mature female Xenopus laevis were anaesthetized (20-40 min) using 0.15% 3-aminobenzoic acid ethyl ester (MS-222) and 2-4 ovarian lobes were surgically removed. Oocytes at developmental stages IV-VI (Dumont, J. N., J. Morphol. 136:153-180 (1972)), were dissected from the ovary still surrounded by enveloping ovarian tissues. Follicle-enclosed oocytes were micro-injected with 1:1 mixtures of cRNA:NR1A+NR2A, 2B, 2C or 2D; injecting ~2,5, or 20 ng of RNA encoding each receptor subunit. NR1A encoding cRNA was injected alone at ~20 ng. Oocytes were stored in Barth's medium containing (in mM):NaCl, 88; KCl, 1; CaCl2, 0.41; Ca(NO3)2, 0.33; MgSO4, 0.82 NaHCO3, 2.4; HEPES 5, pH 7.4, with 0.1 mg/ml gentamicin sulphate. While oocytes were still surrounded by enveloping ovarian tissues the Barth's medium was supplemented with 0.1% bovine serum. Oocytes were defolliculated 1-2 days following injections by treatment with collagenase (0.5 mg/ml Sigma Type I for 0.5-1 hr) (Miledi and Woodward, J. Physiol. (Lond.) 416:601-621 (1989)) and subsequently stored in serum-free medium.
(§5) Electrical recordings were made using a conventional two-electrode voltage clamp (Dagan TEV-200) over periods ranging between 3-21 days following injection. (Woodward et al., Mol. Pharmacol. 41: 89-103 (1992)). Oocytes were placed in a 0.1 ml recording chamber continuously perfused (5-15 ml min^-1 ) with frog Ringer's solution containing (in mM):NaCl, 115; KCl, 2; CaCl2, 1.8; HEPES, 5; pH 7.4. Drugs were applied by bath perfusion. Using oocytes expressing different subunit combinations of NMDA receptor, NMDA currents were activated by co-application of glutamate (100 μm) and glycine (1-100 μm). Inhibitory potency of the novel antagonists was assessed on responses elicited by fixed concentrations of glutamate and glycine, by measuring reductions in current induced by progressively increasing concentrations of antagonist. Concentration-inhibition curves were fit with equation 1.
(§6) I/Icontrol =1/(1+([antagonist]/10^-pIC50)^n) Eq. 1
(§7) in which Icontrol is the current evoked by agonists alone, pIC50 =-log IC50, IC50 is the concentration of antagonist that produces half maximal inhibition, and n is the slope factor. (De Lean et al., Am. J. Physiol. 235:E97-102 (1978)). […]

[2] = target: T2, NMDA receptor subunits 1A/2C (Rattus norvegicus, UniProt P35439+Q00961); assay: Electrophysiological assay at NMDA receptor subunits expressed in Xenopus oocytes, 1A/2C
T2 construct: expressed in transfected cells; host or cells: Xenopus laevis oocytes (cRNA injection; clones from Dr. P. H. Seeburg)
Description: as §1, §2, §3, §4, §5, §6, §7

[3] = target: T3, NMDA receptor subunits 1A/2B (Rattus norvegicus, UniProt P35439+Q00960); assay: Electrophysiological assay at NMDA receptor subunits expressed in Xenopus oocytes, 1A/2B
T3 construct: expressed in transfected cells; host or cells: Xenopus laevis oocytes (cRNA injection; clones from Dr. P. H. Seeburg)
Description: as §1, §2, §3, §4, §5, §6, §7

[4] = Xenopus oocytes, glutamate 100 μm and glycine 1-100 μm, read-out: Subunits IC50, 1A/2C
[5] = Xenopus oocytes, glutamate 100 μm and glycine 1-100 μm, read-out: Subunits IC50, 1A/2B

T3 sequence (Q00960 27-1482, other chains not shown): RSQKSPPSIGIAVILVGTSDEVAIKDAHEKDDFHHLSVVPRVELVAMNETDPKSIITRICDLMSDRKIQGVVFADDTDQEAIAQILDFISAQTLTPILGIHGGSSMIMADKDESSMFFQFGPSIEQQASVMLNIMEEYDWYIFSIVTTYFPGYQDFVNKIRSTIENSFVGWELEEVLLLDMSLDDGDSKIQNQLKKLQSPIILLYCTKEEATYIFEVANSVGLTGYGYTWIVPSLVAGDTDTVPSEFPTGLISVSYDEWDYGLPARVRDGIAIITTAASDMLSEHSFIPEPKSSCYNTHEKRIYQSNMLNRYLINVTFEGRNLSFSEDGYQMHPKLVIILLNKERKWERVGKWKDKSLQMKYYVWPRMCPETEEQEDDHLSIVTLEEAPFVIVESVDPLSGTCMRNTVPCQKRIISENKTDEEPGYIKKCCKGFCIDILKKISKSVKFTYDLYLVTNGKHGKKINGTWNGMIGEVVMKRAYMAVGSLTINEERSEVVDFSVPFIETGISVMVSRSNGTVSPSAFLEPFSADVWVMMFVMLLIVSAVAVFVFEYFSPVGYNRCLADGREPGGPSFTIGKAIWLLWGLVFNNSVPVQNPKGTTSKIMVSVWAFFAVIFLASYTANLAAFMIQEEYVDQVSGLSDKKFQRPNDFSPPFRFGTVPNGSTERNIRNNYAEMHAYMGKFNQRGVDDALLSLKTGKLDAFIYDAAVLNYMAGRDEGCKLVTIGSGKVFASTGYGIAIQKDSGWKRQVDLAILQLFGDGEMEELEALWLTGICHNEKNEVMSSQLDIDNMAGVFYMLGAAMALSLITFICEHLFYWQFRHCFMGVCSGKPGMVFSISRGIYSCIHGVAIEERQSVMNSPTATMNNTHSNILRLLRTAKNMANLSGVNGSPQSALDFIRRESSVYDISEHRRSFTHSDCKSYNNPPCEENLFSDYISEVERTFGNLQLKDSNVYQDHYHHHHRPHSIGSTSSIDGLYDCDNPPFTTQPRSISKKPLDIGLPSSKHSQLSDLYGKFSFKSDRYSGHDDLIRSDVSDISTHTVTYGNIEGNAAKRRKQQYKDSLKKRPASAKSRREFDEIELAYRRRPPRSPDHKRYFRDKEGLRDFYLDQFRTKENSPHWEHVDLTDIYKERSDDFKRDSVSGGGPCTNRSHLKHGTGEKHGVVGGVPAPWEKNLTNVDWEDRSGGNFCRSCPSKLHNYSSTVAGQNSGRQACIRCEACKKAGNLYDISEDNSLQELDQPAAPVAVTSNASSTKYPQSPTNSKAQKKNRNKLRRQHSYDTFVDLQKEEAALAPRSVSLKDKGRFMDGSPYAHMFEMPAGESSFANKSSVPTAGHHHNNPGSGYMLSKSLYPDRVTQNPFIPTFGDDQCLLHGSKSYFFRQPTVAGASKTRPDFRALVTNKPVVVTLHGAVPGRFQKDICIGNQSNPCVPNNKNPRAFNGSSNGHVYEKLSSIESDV
T2 sequence (Q00961 20-1237, other chains not shown): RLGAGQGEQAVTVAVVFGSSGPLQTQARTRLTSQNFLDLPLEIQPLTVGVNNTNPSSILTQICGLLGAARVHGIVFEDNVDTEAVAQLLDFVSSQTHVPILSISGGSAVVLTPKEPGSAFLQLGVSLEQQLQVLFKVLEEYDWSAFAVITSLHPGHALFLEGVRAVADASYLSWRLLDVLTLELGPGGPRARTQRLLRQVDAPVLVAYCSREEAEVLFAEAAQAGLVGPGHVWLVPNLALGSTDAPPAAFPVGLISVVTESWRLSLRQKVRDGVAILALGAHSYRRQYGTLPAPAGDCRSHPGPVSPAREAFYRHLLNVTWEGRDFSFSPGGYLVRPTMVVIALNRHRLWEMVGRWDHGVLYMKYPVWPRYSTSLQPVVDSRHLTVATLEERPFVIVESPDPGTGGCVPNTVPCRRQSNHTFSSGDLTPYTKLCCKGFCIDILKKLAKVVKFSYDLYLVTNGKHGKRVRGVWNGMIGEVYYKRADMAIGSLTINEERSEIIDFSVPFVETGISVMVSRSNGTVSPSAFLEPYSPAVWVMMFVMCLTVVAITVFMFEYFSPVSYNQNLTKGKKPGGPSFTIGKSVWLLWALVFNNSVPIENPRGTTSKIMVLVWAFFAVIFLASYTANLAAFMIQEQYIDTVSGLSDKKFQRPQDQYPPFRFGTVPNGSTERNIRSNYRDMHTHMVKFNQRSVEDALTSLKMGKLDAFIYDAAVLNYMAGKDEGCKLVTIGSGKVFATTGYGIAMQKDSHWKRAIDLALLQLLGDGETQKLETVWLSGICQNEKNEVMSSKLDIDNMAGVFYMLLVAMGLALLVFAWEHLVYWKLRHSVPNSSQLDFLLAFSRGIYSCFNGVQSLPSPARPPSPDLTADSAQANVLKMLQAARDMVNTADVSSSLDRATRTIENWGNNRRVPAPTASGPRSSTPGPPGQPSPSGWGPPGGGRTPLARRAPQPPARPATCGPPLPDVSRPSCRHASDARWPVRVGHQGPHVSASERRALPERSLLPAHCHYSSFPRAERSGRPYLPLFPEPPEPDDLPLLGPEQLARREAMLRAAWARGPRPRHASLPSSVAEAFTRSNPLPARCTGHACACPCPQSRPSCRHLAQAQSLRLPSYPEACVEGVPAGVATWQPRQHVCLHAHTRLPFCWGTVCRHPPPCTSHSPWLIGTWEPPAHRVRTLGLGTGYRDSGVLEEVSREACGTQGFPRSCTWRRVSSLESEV
T1 sequence (Q00959 20-1464 limits assumed, other chains not shown): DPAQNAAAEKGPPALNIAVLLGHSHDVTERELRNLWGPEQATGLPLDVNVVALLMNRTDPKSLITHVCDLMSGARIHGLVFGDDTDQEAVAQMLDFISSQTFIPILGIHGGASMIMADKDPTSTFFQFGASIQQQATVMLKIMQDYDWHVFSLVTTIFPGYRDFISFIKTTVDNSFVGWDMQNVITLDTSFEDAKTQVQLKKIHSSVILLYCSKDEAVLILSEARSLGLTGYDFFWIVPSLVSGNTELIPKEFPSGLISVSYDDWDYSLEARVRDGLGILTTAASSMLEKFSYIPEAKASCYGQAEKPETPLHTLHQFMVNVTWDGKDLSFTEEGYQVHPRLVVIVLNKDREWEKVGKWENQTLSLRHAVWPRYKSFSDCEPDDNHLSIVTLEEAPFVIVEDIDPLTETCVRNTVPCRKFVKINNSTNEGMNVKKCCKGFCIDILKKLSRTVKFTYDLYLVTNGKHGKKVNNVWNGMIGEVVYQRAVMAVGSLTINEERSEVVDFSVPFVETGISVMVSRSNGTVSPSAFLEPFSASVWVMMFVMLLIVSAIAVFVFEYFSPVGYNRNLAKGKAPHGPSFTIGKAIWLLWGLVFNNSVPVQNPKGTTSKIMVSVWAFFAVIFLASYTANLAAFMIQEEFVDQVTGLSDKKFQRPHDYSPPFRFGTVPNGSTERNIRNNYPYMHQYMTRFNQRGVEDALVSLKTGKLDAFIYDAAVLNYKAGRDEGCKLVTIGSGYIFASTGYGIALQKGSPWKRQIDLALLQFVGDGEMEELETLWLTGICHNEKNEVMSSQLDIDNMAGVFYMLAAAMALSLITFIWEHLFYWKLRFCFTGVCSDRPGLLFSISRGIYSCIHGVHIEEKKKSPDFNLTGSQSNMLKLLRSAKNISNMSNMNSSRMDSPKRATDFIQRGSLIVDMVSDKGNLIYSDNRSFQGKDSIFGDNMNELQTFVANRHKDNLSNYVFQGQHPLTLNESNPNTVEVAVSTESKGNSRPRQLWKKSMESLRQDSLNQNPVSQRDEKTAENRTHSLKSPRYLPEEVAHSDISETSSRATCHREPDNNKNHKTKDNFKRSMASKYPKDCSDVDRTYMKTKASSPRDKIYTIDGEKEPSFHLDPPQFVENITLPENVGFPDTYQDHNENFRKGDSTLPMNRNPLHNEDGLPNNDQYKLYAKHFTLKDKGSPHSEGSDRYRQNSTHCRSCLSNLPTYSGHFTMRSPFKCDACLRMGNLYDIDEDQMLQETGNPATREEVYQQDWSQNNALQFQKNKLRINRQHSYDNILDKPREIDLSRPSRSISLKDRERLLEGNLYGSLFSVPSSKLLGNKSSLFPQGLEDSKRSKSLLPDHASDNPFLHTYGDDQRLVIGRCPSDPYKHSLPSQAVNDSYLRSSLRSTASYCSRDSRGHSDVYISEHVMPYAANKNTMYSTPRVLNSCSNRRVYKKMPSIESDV

Compound | pIC50 [1] | pIC50 [2, 4] | pIC50 [3, 5] | pIC50 [2] | pIC50 [3]
Fc1ccc(OCCN2CCC(Cc3cccc(F)c3)CC2)cc1 [Ex. 113, 4-(3-Fluorobenzyl)-1-(2-(4-fluorophenoxy)ethyl)piperidine hydrochloride] | 3.70 | 3.70 | 4.52 | – | –
O=C1Cc2cc(OCCN3CCC(Cc4ccc(F)cc4)CC3)ccc2N1 [Ex. 195, 4-(4-Fluorobenzyl)-1-(2-(2-oxo-1,3-dihydroindol-5-oxy)ethyl)piperidine] | < 3.52 | < 3.52 | 7.15 | – | –
O=c1[nH]c2ccc(OCCN3CCC(Cc4ccc(Cl)cc4)CC3)cc2[nH]1 [Ex. 80, 4-(4-Chlorobenzyl)-1-[2-(2-oxobenzimidazol-5-oxy)ethyl]piperidine] | 4.80 | 4.15 | 7.60 | – | –
Oc1ccc(CCCN2CCC(Cc3ccccc3)CC2)cc1 [Ex. 106, 1-[3-(4-Hydroxyphenyl)propyl]-4-benzylpiperidine hydrochloride] | 4.05 | 3.59 | 7.70 | – | –
Cc1ccc(CC2CCN(CCOc3cccc(O)c3)CC2)cc1 [Ex. 160, 1-[2-(3-Hydroxyphenoxy)ethyl]-4-(4-methylbenzyl)piperidine hydrochloride] | 4.22 | 3.92 | 6.70 | – | –
c1ccc(CC2CCN(CCOc3ncnc4ccccc34)CC2)cc1 [Ex. 66] | – | < 4.00 | 5.00 | – | –
Fc1ccc(CC2CCN(CCOc3ccc(Cl)cc3)CC2)cc1 [Ex. 34, 4-(4-Fluorobenzyl)-1-(2-(4-chlorophenoxy)ethyl)piperidine hydrochloride] | – | < 4.00 | 4.82 | – | –
Clc1ccc(CC2CCN(CCOc3ccc(Cl)cc3)CC2)cc1 [Ex. 26, 4-(4-Chlorobenzyl)-1-(2-(4-chlorophenoxyethyl)piperidine hydrochloride] | – | < 4.00 | 4.92 | – | –
CC(=O)Nc1ccc(OCCN2CCC(Cc3ccccc3)CC2)cc1NC(C)=O [Ex. 71A, 4-Benzyl-1-[2-(3,4-bisacetamidophenoxy)ethyl]piperidine] | – | < 4.00 | 4.70 | – | –
Fc1ccc(NC2CCN(CCOc3ccc(F)cc3)CC2)cc1 [Ex. 39, 1-(2-(4-Fluorophenoxy)ethyl)-4-(N-(4-fluoroanilino)piperidine hydrochloride] | – | < 4.00 | 4.22 | – | –
Oc1ccc(OCCN2CCC(O)(Cc3ccccc3)CC2)cc1 [Ex. 164, 4-Benzyl-4-hydroxy-1-[2-(4-hydroxyphenoxy)ethyl]piperidine hydrochloride] | – | < 3.52 | 6.92 | – | –
OC1CN(CCCOc2ccccc2)CCC1c1cccc(C(F)(F)F)c1 (stereo not drawn) [Ex. 46, 3-Hydroxy-1-(3-phenoxypropyl)-4-(3-trifluoromethylphenyl)piperidine hydrochloride] | – | < 4.00 | 5.82 | – | –
OC1(Cc2ccccc2)CCN(CCCc2ccccc2)CC1 [Ex. 91, 4-Benzyl-4-hydroxy-1-(3-phenylpropyl)piperidine hydrochloride] | – | < 4.00 | 4.66 | – | –
ClCCN1CCC(Cc2ccccc2)CC1 [Ex. 49, 4-Benzyl-1-(2-chloroethyl)piperidine] | – | – | – | < 4.00 | 5.30
Fc1ccc(OCCN2CCC(Cc3ccc4c(c3)CCCC4)CC2)cc1 [Ex. 140, 1-(2-(4-Fluorophenoxy)ethyl)-4-((5,6,7,8-tetrahydro-2-naphthyl)methyl)piperidine hydrochloride] | 4.10 | – | 4.55 | – | –
OCCc1cccc(OCCN2CCC(Cc3ccc(Cl)cc3)CC2)c1 [Ex. 29, 4-(4-Chlorobenzyl)-1-(2-(3-(2-hydroxyethyl)phenoxy)ethyl)piperidine] | – | < 4.00 | 6.30 | – | –
OC1(Cc2ccccc2)CCN(CCCOc2ccccc2)CC1 [Ex. 48, 4-Benzyl-4-hydroxy-1-(3-phenoxypropyl)piperidine] | – | < 4.00 | 4.66 | – | –
c1ccc(CCCN2CCC(Cc3ccccc3)CC2)cc1 [Ex. 84, 4-Benzyl-1-(3-phenylpropyl)piperidine hydrochloride] | – | < 4.00 | 5.66 | – | –
Oc1ccc(OCCN2CCC(Cc3ccc4ccccc4c3)CC2)cc1 [Ex. 141, 1-(2-(4-Hydroxyphenoxy)ethyl)-4-((2-naphthyl)methyl)piperidine hydrochloride] | – | 4.05 | 7.00 | – | –

Further lines, with some results ahead:

pIC50 [1] | pIC50 [2, 4] | pIC50 [3, 5] | Compound | pIC50 [2] | pIC50 [3]
– | < 4.00 | 5.30 | COc1ccccc1OCCN1CCC(Cc2ccccc2)CC1 [Ex. 68, 4-Benzyl-1-[2-(2-methoxyphenoxy)ethyl]piperidine] | – | –
– | < 4.00 | 5.22 | O=[N+]([O-])c1ccc(OCCN2CCC(Cc3ccccc3)CC2)cc1 [Ex. 12, 4-Benzyl-1-(2-(4-nitrophenoxy)ethyl)piperidine hydrobromide] | – | –
4.10 | 4.10 | 4.00 | c1ccc(COc2ccc(OCCN3CCC(Cc4ccccc4)CC3)cc2)cc1 [Ex. 98, 1-[2-(4-Benzyloxyphenoxy)ethyl]-4-benzylpiperidine hydrochloride] | – | –
– | 3.72 | 6.52 | Oc1ccccc1OCCN1CCC(Cc2ccc(F)cc2)CC1 [Ex. 158, 4-(4-Fluorobenzyl)-1-[2-(2-hydroxyphenoxy)ethyl]piperidine hydrochloride] | – | –
4.22 | < 4.00 | 5.44 | O=c1[nH]c2cccc(OCCN3CCC(Cc4ccccc4)CC3)c2[nH]c1=O [Ex. 54, 4-Benzyl-1-[2-(2,3-dioxoquinoxalin-5-oxy)ethyl]piperidine] | – | –
– | < 4.00 | 5.52 | CCOC(=O)Cc1cccc(OCCN2CCC(Cc3ccccc3)CC2)c1 [Ex. 17, 4-Benzyl-1-(2-(3-(ethoxycarbonylmethyl)phenoxy)ethyl)piperidine] | – | –
– | < 3.52 | 6.70 | Cn1c(=O)[nH]c2ccc(OCCN3CCC(Cc4ccccc4)CC3)cc21 [Ex. 193, 4-Benzyl-1-(2-(3-methyl-2-oxobenzamidazol-5-oxy)ethyl)piperidine] | – | –
– | < 4.00 | 5.40 | COc1ccc(CC2CCN(CCOc3ccc(F)cc3)CC2)cc1 [Ex. 35, 1-(2-(4-Fluorophenoxy)ethyl)-4-(4-methoxybenzyl)piperidine hydrochloride] | – | –
– | < 4.00 | 5.52 | N#Cc1ccc(OCCN2CCC(Cc3ccccc3)CC2)cc1 [Ex. 14, 4-Benzyl-1-(2-(4-cyanophenoxy)ethyl)piperidine] | – | –
– | < 4.00 | 5.10 | Cc1nc2cc(OCCN3CCC(Cc4ccccc4)CC3)ccc2[nH]1 [Ex. 71C, 4-Benzyl-1-[2-(2-methylbenzimidazol-5-oxy)ethyl]piperidine] | – | –
– | < 4.00 | 5.22 | O=[N+]([O-])c1ccccc1OCCN1CCC(Cc2ccccc2)CC1 [Ex. 60, 4-Benzyl-1-[2-(2-nitrophenoxy)ethyl]piperidine] | – | –
– | < 4.00 | 5.00 | Clc1ccc(OCCN2CCC(Cc3ccccc3)CC2)cc1 [Ex. 11, 4-Benzyl-1-(2-(4-chlorophenoxy)ethyl)piperidine hydrochloride] | – | –

From patent US6124323A, “4-substituted piperidine analogs and their use as subtype selective NMDA receptor antagonists” (Warner-Lambert Company, priority 1998, dated 2000)
